These results are taken from the supplement of paper PMC5908809.

For orientation: relative IC50 means the concentration halfway between the upper and lower plateau of the fitted curve.

Experiment in all cases: relative IC50 (inflection point of fitted viability curve, relative to fitted max inhibition); higher = less sensitive
Details in all cases: 72 h

Experiment [1] relates to YT (IL-2 2.5 ng/mL). How it is done:
(§1)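 Drug sensitivity and resistance testing: 5 concentrations over a 10,000-fold range, 72 h at 37 °C, viability by CellTiter-Glo normalised to DMSO and benzethonium chloride controls. IC50 is the inflection point of a logistic fit (min fixed at 0, max fitted), so it is relative to the fitted maximal inhibition. Kept only where fitted max inhibition is at least 50%.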

Experiment [2] deals with KAI3 (IL-2 2.5 ng/mL). Here is the method: as §1
In experiment [3] the test system is IMC-1 (IL-2 20 ng/mL). How it is done: as §1
Experiment [4] relates to normal primary NK cells, pool 2 (3 donors) (IL-2 2.5 ng/mL). How it is done: as §1
The subject of experiment [5] is KHYG-1 (IL-2 2.5 ng/mL). Here is the method: as §1
Experiment [6] relates to SNK-6 (IL-2 2.5 ng/mL). How it is done: as §1
The subject of experiment [7] is NKL (IL-2 2.5 ng/mL). Here is the method:
as §1

The test system of experiment [8] is normal primary NK cells, pool 3 (3 donors) (IL-2 2.5 ng/mL). Here is the method:
as §1

Experiment [9] relates to normal primary NK cells, pool 1 (3 donors), resting (IL-2 0 ng/mL). Here is the method:
as §1

For experiment [10], the system named is DERL-7 (IL-2 2.5 ng/mL). How it is done: as §1
Experiment [11] concerns normal primary NK cells, pool 1 (3 donors) (IL-2 2.5 ng/mL). How it is done:
as §1

The subject of experiment [12] is NK-92 (IL-2 2.5 ng/mL). Here is the method: as §1
Experiment [13] concerns NK-YS (IL-2 2.5 ng/mL). Here is the method:
as §1

As to `CC(=O)[C@]1(O)Cc2c(O)c3c(c(O)c2[C@@H](O[C@H]2C[C@H](N)[C@H](O)[C@H](C)O2)C1)C(=O)c1ccccc1C3=O` [Idarubicin], the “relative IC50” value in experiment [1] is 34 nM; in [2], 3.54 nM; in [3] it was 7.71 nM; in experiment [4], 9.51 nM; in experiment [5] it was 6.52 nM; in experiment [6], 5.03 nM. Besides, the “relative IC50” value in experiment [7] worked out at 1.74 nM; in experiment [8], 10.9 nM; in experiment [9], 3.38 nM; in experiment [10], 6.26 nM; in experiment [11], 17.3 nM; in experiment [12], 5.78 nM. Besides, in [13], the “relative IC50” value was found to be 6.58 nM.
In the case of `CO[C@@H]1[C@H](N(C)C(=O)c2ccccc2)C[C@H]2O[C@]1(C)n1c3ccccc3c3c4c(c5c6ccccc6n2c5c31)C(=O)NC4` [Midostaurin], the “relative IC50” value in [1] worked out at 431 nM; in [2], 175 nM; in experiment [3], 486 nM; in experiment [4] it was 438 nM; in experiment [5], 186 nM; in experiment [6] it was 115 nM. The “relative IC50” value in experiment [7] is 127 nM; in [8], 594 nM; in [9], 1050 nM; in experiment [10], 217 nM; in experiment [11] it was 188 nM; in [12] it was 330 nM. Moreover, the “relative IC50” value in experiment [13] is 338 nM.
Take `CNC(=O)c1nn(C)c2c1C(C)(C)Cc1cnc(Nc3ccc(N4CCN(C)CC4)cc3)nc1-2` [Milciclib]: the “relative IC50” value is 1680 nM in experiment [1]; 1230 nM in experiment [2]; 3420 nM in experiment [3]; 775 nM in [4]; 278 nM in experiment [5]; 1780 nM in [6]. Also, the “relative IC50” value in experiment [7] came to 1220 nM; in [8], 1470 nM; in [9], 449 nM; in experiment [10], 634 nM; in [11] it was 1100 nM; in experiment [12], 1190 nM. Also, the “relative IC50” value in [13] came to 1170 nM.
For `Cc1cc(OCc2nnc(SC3CCCC3)n2-c2cccnc2)ccc1-c1ccc(S(C)(=O)=O)cc1` [NMS-873], the “relative IC50” value in experiment [1] worked out at 48.7 nM; in experiment [2], 1270 nM; in experiment [3] it was 40.2 nM; in experiment [4] it was 767 nM; in [5] it was 250 nM; in experiment [6], 1440 nM. Besides, the “relative IC50” value in experiment [7] is 488 nM; in experiment [8], 1680 nM; in experiment [9], 455 nM; in experiment [10], 1410 nM; in experiment [11], 909 nM; in experiment [12], 506 nM. In addition, in experiment [13], the “relative IC50” value is 114 nM.
`COc1ccc(-c2ccc3ncc4c(c3c2)n(-c2ccc(N3CCNCC3)c(C(F)(F)F)c2)c(=O)n4C)cn1` [NVP-BGT226]: the “relative IC50” value stood at 45.6 nM in experiment [1]; 45.8 nM in experiment [2]; 90.7 nM in experiment [3]; 128 nM in [4]; 48.4 nM in experiment [5]; 53.8 nM in [6]. Moreover, the “relative IC50” value in experiment [7] turned out to be 47.8 nM; in experiment [8], 167 nM; in experiment [9], 64.4 nM; in [10] it was 8.54 nM; in [11] it was 105 nM; in experiment [12], 29.8 nM. Also, the “relative IC50” value in experiment [13] was 25.3 nM.
Take `C1=N/C2=N/c3ccc(OCCN4CCCC4)c(c3)COC/C=C/COCc3cccc(c3)C(=C1)N2` [Pacritinib]: the “relative IC50” value came to 910 nM in experiment [1]; 569 nM in experiment [2]; 3880 nM in experiment [3]; 367 nM in experiment [4]; 826 nM in experiment [5]; 1390 nM in experiment [6]. In addition, the “relative IC50” value in experiment [7] is 777 nM; in [8], 627 nM; in [9] it was 838 nM; in experiment [10], 560 nM; in [11], 410 nM; in [12], 1220 nM. For the same compound, in [13], the “relative IC50” value came out at 982 nM.
With `CCOc1cc2ncc(C#N)c(Nc3ccc(F)c(Cl)c3)c2cc1NC(=O)/C=C/CN(C)C` [Pelitinib], the “relative IC50” value in [1] was 496 nM; in experiment [2] it was 260 nM; in experiment [3] it was 966 nM; in [4], 260 nM; in experiment [5] it was 382 nM; in [6] it was 103 nM. The “relative IC50” value in [7] was found to be 475 nM; in experiment [8] it was 429 nM; in experiment [9], 459 nM; in [10] it was 293 nM; in [11] it was 300 nM; in experiment [12] it was 510 nM. Moreover, in experiment [13], the “relative IC50” value stood at 820 nM.
